Experimental data as given in PubChem BioAssay AID1745844 (Carcinogenic Potency Database (CPDB), 2022).

Tested on: rodent lifetime carcinogenesis bioassay, tumor incidence TD50
Assay: chronic cancer bioassays in animals – CPDB, compiled studies (AID 1745844)
Settings: inhaled

SMILES: C=CC=C
- TD50 (mouse, strain B6C3F1, males, site: liver, lesion: hepatocellular adenoma + hepatocellular carcinoma + neoplastic nodule, dosed 60 weeks, study length 60 weeks): 541 mg/kg/day
- TD50 (mouse, strain B6C3F1, males, site: liver, lesion: hepatocellular adenoma + hepatocellular carcinoma + neoplastic nodule, dosed 82 weeks, study length 104 weeks): 23.9 mg/kg/day
- TD50 (mouse, strain B6C3F1, males, site: liver, lesion: hepatocellular adenoma + hepatocellular carcinoma, dosed 13 weeks, study length 104 weeks): 15.1 mg/kg/day
- TD50 (mouse, strain B6C3F1, males, site: liver, lesion: hepatocellular adenoma + hepatocellular carcinoma, dosed 26 weeks, study length 104 weeks): 23.8 mg/kg/day
- TD50 (mouse, strain B6C3F1, males, site: liver, lesion: hepatocellular adenoma + hepatocellular carcinoma, dosed 40 weeks, study length 104 weeks): 16.8 mg/kg/day
- TD50 (mouse, strain B6C3F1, males, site: liver, lesion: hepatocellular adenoma + hepatocellular carcinoma, dosed 52 weeks, study length 104 weeks): 14.6 mg/kg/day
- TD50 (mouse, strain B6C3F1, males, site: liver, lesion: hepatocellular adenoma + hepatocellular carcinoma, dosed 82 weeks, study length 104 weeks): 23.9 mg/kg/day
- TD50 (mouse, strain B6C3F1, males, site: liver, lesion: hepatocellular adenoma, dosed 13 weeks, study length 104 weeks): 17.9 mg/kg/day
- TD50 (mouse, strain B6C3F1, males, site: liver, lesion: hepatocellular adenoma, dosed 26 weeks, study length 104 weeks): 27.8 mg/kg/day
- TD50 (mouse, strain B6C3F1, males, site: liver, lesion: hepatocellular adenoma, dosed 40 weeks, study length 104 weeks): 18 mg/kg/day
- TD50 (mouse, strain B6C3F1, males, site: liver, lesion: hepatocellular adenoma, dosed 52 weeks, study length 104 weeks): 15.8 mg/kg/day
- TD50 (mouse, strain B6C3F1, males, site: liver, lesion: hepatocellular adenoma, dosed 82 weeks, study length 104 weeks): 34.1 mg/kg/day
- TD50 (mouse, strain B6C3F1, males, site: liver, lesion: hepatocellular carcinoma, dosed 13 weeks, study length 104 weeks): 23.4 mg/kg/day
- TD50 (mouse, strain B6C3F1, males, site: liver, lesion: hepatocellular carcinoma, dosed 26 weeks, study length 104 weeks): 60 mg/kg/day
- TD50 (mouse, strain B6C3F1, males, site: liver, lesion: hepatocellular carcinoma, dosed 40 weeks, study length 104 weeks): 62 mg/kg/day
- TD50 (mouse, strain B6C3F1, males, site: liver, lesion: hepatocellular carcinoma, dosed 52 weeks, study length 104 weeks): 47 mg/kg/day
- TD50 (mouse, strain B6C3F1, males, site: liver, lesion: hepatocellular carcinoma, dosed 82 weeks, study length 104 weeks): 34.4 mg/kg/day
- TD50 (mouse, strain B6C3F1, males, site: lung, lesion: alveolar/bronchiolar adenoma + alveolar/bronchiolar carcinoma + adenocarcinoma, dosed 13 weeks, study length 104 weeks): 8.59 mg/kg/day
- TD50 (mouse, strain B6C3F1, males, site: lung, lesion: alveolar/bronchiolar adenoma + alveolar/bronchiolar carcinoma + adenocarcinoma, dosed 52 weeks, study length 104 weeks): 7.17 mg/kg/day
- TD50 (mouse, strain B6C3F1, males, site: lung, lesion: alveolar/bronchiolar adenoma + alveolar/bronchiolar carcinoma + adenocarcinoma, dosed 82 weeks, study length 104 weeks): 19.2 mg/kg/day
- TD50 (mouse, strain B6C3F1, males, site: lung, lesion: alveolar/bronchiolar adenoma + alveolar/bronchiolar carcinoma, dosed 13 weeks, study length 104 weeks): 8.59 mg/kg/day
- TD50 (mouse, strain B6C3F1, males, site: lung, lesion: alveolar/bronchiolar adenoma + alveolar/bronchiolar carcinoma, dosed 26 weeks, study length 104 weeks): 13.4 mg/kg/day
- TD50 (mouse, strain B6C3F1, males, site: lung, lesion: alveolar/bronchiolar adenoma + alveolar/bronchiolar carcinoma, dosed 40 weeks, study length 104 weeks): 11 mg/kg/day
- TD50 (mouse, strain B6C3F1, males, site: lung, lesion: alveolar/bronchiolar adenoma + alveolar/bronchiolar carcinoma, dosed 52 weeks, study length 104 weeks): 7.25 mg/kg/day
- TD50 (mouse, strain B6C3F1, males, site: lung, lesion: alveolar/bronchiolar adenoma + alveolar/bronchiolar carcinoma, dosed 60 weeks, study length 60 weeks): 65.9 mg/kg/day
- TD50 (mouse, strain B6C3F1, males, site: lung, lesion: alveolar/bronchiolar adenoma + alveolar/bronchiolar carcinoma, dosed 82 weeks, study length 104 weeks): 19.6 mg/kg/day
- TD50 (mouse, strain B6C3F1, males, site: lung, lesion: alveolar/bronchiolar adenoma, dosed 13 weeks, study length 104 weeks): 17.1 mg/kg/day
- TD50 (mouse, strain B6C3F1, males, site: lung, lesion: alveolar/bronchiolar adenoma, dosed 26 weeks, study length 104 weeks): 17.3 mg/kg/day
- TD50 (mouse, strain B6C3F1, males, site: lung, lesion: alveolar/bronchiolar adenoma, dosed 40 weeks, study length 104 weeks): 18.1 mg/kg/day
- TD50 (mouse, strain B6C3F1, males, site: lung, lesion: alveolar/bronchiolar adenoma, dosed 52 weeks, study length 104 weeks): 9.13 mg/kg/day
- TD50 (mouse, strain B6C3F1, males, site: lung, lesion: alveolar/bronchiolar adenoma, dosed 60 weeks, study length 60 weeks): 96.9 mg/kg/day
- TD50 (mouse, strain B6C3F1, males, site: lung, lesion: alveolar/bronchiolar adenoma, dosed 82 weeks, study length 104 weeks): 33.2 mg/kg/day
- TD50 (mouse, strain B6C3F1, males, site: lung, lesion: alveolar/bronchiolar carcinoma + adenocarcinoma, dosed 13 weeks, study length 104 weeks): 14.1 mg/kg/day
- TD50 (mouse, strain B6C3F1, males, site: lung, lesion: alveolar/bronchiolar carcinoma + adenocarcinoma, dosed 52 weeks, study length 104 weeks): 13 mg/kg/day
- TD50 (mouse, strain B6C3F1, males, site: lung, lesion: alveolar/bronchiolar carcinoma + adenocarcinoma, dosed 82 weeks, study length 104 weeks): 32.4 mg/kg/day
- TD50 (mouse, strain B6C3F1, males, site: lung, lesion: alveolar/bronchiolar carcinoma, dosed 26 weeks, study length 104 weeks): 17.8 mg/kg/day
- TD50 (mouse, strain B6C3F1, males, site: lung, lesion: alveolar/bronchiolar carcinoma, dosed 40 weeks, study length 104 weeks): 16.3 mg/kg/day
- TD50 (mouse, strain B6C3F1, males, site: lung, lesion: alveolar/bronchiolar carcinoma, dosed 60 weeks, study length 60 weeks): 312 mg/kg/day
- TD50 (mouse, strain B6C3F1, males, site: preputial gland, lesion: adenoma + carcinoma + carcinoma, bilateral, dosed 13 weeks, study length 104 weeks): 119 mg/kg/day
- TD50 (mouse, strain B6C3F1, males, site: preputial gland, lesion: adenoma + carcinoma + carcinoma, bilateral, dosed 26 weeks, study length 104 weeks): 27.1 mg/kg/day
- TD50 (mouse, strain B6C3F1, males, site: preputial gland, lesion: adenoma + carcinoma + carcinoma, bilateral, dosed 40 weeks, study length 104 weeks): 351 mg/kg/day
- TD50 (mouse, strain B6C3F1, males, site: preputial gland, lesion: carcinoma + carcinoma, bilateral, dosed 13 weeks, study length 104 weeks): 167 mg/kg/day
- TD50 (mouse, strain B6C3F1, males, site: preputial gland, lesion: carcinoma + carcinoma, bilateral, dosed 26 weeks, study length 104 weeks): 27.1 mg/kg/day
- TD50 (mouse, strain B6C3F1, males, site: preputial gland, lesion: carcinoma + carcinoma, bilateral, dosed 40 weeks, study length 104 weeks): 351 mg/kg/day
- TD50 (mouse, strain B6C3F1, males, site: preputial gland, lesion: carcinoma + carcinoma, bilateral, dosed 52 weeks, study length 104 weeks): 20.1 mg/kg/day
- TD50 (mouse, strain B6C3F1, males, site: preputial gland, lesion: carcinoma, NOS + squamous-cell carcinoma, dosed 60 weeks, study length 60 weeks): 403 mg/kg/day
- TD50 (mouse, strain B6C3F1, males, site: preputial gland, lesion: carcinoma, dosed 82 weeks, study length 104 weeks): 384 mg/kg/day
- TD50 (mouse, strain B6C3F1, males, site: preputial gland, lesion: squamous-cell carcinoma, dosed 60 weeks, study length 60 weeks): 538 mg/kg/day
- TD50 (mouse, strain B6C3F1, males, site: subcutaneous tissue, lesion: hemangiosarcoma, dosed 82 weeks, study length 104 weeks): 666 mg/kg/day
- TD50 (rat, strain Charles River CD (Sprague-Dawley), females, site: mammary gland, lesion: benign tumor, dosed 105 weeks, study length 105 weeks): 182 mg/kg/day
- TD50 (rat, strain Charles River CD (Sprague-Dawley), females, site: mammary gland, lesion: malignant tumor, dosed 105 weeks, study length 105 weeks): 7720 mg/kg/day
- TD50 (rat, strain Charles River CD (Sprague-Dawley), females, site: mammary gland, lesion: several types, types named in the paper, dosed 105 weeks, study length 105 weeks): 133 mg/kg/day
- TD50 (rat, strain Charles River CD (Sprague-Dawley), females, site: thyroid gland, lesion: follicular-cell adenoma, dosed 105 weeks, study length 105 weeks): 8270 mg/kg/day
- TD50 (rat, strain Charles River CD (Sprague-Dawley), males, site: any site (literature study), lesion: one or several types, types not named, dosed 111 weeks, study length 111 weeks): 1470 mg/kg/day
- TD50 (rat, strain Charles River CD (Sprague-Dawley), males, site: pancreas, lesion: exocrine adenoma, dosed 111 weeks, study length 111 weeks): 9310 mg/kg/day
- TD50 (rat, strain Charles River CD (Sprague-Dawley), males, site: testis, lesion: Leydig-cell tumor, dosed 111 weeks, study length 111 weeks): 7550 mg/kg/day
